According to patent US11427556B2, “Urea derivatives as inhibitors of ASK1” (Hepagene Therapeutics (HK) Limited, priority 2017, dated 2022):

What follows are molecules tested against T1, Recombinant human ASK1 kinase (Homo sapiens, UniProt Q99683) (assay: ASK1 kinase HTRF assay (HTRF KinEASE-STK, phosphorylation of biotinylated peptide substrate)). Settings: 3 nM ASK1 kinase, 1 uM STK-substrate-biotin, HTRF detection; read-out: EC50.
T1 construct: purchased Invitrogen Inc
T1 sequence (Q99683 1-1374): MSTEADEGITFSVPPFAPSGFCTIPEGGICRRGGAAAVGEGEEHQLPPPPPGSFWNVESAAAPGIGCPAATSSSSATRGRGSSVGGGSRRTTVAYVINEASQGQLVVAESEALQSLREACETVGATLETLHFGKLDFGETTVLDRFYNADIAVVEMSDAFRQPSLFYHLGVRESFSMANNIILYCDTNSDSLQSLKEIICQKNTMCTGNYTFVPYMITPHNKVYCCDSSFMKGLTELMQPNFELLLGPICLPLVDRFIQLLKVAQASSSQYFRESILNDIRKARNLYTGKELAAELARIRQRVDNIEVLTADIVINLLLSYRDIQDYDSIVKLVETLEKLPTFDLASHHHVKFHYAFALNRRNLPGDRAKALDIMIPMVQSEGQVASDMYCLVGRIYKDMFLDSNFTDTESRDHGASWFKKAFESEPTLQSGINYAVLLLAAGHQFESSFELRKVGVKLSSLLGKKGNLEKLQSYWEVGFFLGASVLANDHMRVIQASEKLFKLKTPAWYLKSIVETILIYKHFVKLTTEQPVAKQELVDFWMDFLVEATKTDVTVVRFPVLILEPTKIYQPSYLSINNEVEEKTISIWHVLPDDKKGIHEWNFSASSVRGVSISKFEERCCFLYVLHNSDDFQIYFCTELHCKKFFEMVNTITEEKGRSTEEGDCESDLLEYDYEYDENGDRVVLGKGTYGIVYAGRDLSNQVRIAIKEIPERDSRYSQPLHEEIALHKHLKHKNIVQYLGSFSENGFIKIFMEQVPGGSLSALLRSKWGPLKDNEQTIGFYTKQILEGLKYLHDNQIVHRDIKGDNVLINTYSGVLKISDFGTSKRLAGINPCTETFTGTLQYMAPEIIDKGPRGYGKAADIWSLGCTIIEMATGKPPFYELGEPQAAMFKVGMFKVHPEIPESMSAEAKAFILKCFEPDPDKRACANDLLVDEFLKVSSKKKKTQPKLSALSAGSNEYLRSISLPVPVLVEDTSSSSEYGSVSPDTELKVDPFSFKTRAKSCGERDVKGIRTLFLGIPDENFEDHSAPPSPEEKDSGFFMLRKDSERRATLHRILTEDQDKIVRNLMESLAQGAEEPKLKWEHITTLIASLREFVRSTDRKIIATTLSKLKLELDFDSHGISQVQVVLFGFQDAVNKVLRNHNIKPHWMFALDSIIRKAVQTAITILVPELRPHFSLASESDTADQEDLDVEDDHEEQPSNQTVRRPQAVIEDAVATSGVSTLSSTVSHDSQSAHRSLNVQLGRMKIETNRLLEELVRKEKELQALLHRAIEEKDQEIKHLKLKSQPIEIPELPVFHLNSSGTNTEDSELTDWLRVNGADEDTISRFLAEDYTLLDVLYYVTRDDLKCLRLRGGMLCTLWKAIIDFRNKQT
Format: biochemical
Outline: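 HTRF KinEASE-STK read-out of biotinylated peptide phosphorylation. Compound incubated with 3 nM ASK1 and 1 uM STK-substrate-biotin in kinase buffer containing 5 mM MgCl2 and 1 mM DTT.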

| EC50 [nM] | SMILES |
| --- | --- |
| 50 to 500 | Cc1ccc(-n2ccn(-c3cccc(-c4nncn4C(C)C)n3)c2=O)c(F)c1 [III-01, 3-(2-Fluoro-4-methylphenyl)-1-(6-(4-isopropyl-4H-1,2,4-triazol-3-yl)pyridin-2-yl)-1H-imidazol-2(3H)-one] |
| < 50 | CC(C)n1cnnc1-c1cccc(-n2ccn(-c3ccc(C(=O)N4CCCCC4)cn3)c2=O)n1 [III-02, 1-(6-(4-Isopropyl-4H-1,2,4-triazol-3-yl)pyridin-2-yl)-3-(5-(piperidine-1-carbonyl)pyridin-2-yl)-1H-imidazol-2(3H)-one] |
| < 50 | CC(C)n1cnnc1-c1cccc(-n2ccn(-c3ccc(N4CCOCC4)cn3)c2=O)n1 [III-03, 1-(6-(4-Isopropyl-4H-1,2,4-triazol-3-yl)pyridin-2-yl)-3-(5-morpholinopyridin-2-yl)-1H-imidazol-2(3H)-one] |
| < 50 | CC(C)n1cnnc1-c1cccc(-n2ccn(-c3ccc(N4CCNCC4)cn3)c2=O)n1 [III-04, 1-(6-(4-Isopropyl-4H-1,2,4-triazol-3-yl)pyridin-2-yl)-3-(5-(piperazin-1-yl)pyridin-2-yl)-1H-imidazol-2(3H)-one] |
| < 50 | Cc1ccc(-n2ccn(-c3cccc(-c4nncn4C(C)C)n3)c2=O)nc1 [III-05] |
| < 50 | CC(C)n1cnnc1-c1cccc(-n2ccn(-c3ccc(-c4ccccc4)cn3)c2=O)n1 [III-06] |
| < 50 | C[C@H](CO)n1cnnc1-c1cccc(-n2ccn(-c3ccc(-c4ccccc4)cn3)c2=O)n1 [III-07] |
| 50 to 500 | C[C@H](CO)n1cnnc1-c1cccc(-n2ccn(-c3cc(-c4ccccc4)ccn3)c2=O)n1 [III-08] |
| < 50 | C[C@H](CO)n1cnnc1-c1cccc(-n2ccn(-c3ccc(N4CCOCC4)cn3)c2=O)n1 [III-10] |
| 50 to 500 | CC(C)n1cnnc1-c1cccc(NC(=S)Nc2ccccn2)n1 [VI-01, 1-(6-(4-Isopropyl-4H-1,2,4-triazol-3-yl)pyridin-2-yl)-3-(pyridin-2-yl)thiourea] |
